Reference: patent US20050222408A1, “Heterocyclic amides with anti-tuberculosis activity” (priority 2003, published 2005)
Values after ≈ are worked out from the molar mass of the structure shown. “Also recorded” adds a separate entry of the source. Where two headings read alike, the source gives them in different places.

What was measured:
Vero cells = experiment: Cytotoxicity, alamar blue assay against Vero cells; type: cell-based; settings: for ToxIC50: unit not given; for IC50: Chlorocebus sabaeus, read-out: ToxIC50; for selectivity index (SI): summary b276
[1] = target: UDP-galactose mutase (Glf) (Mycobacterium tuberculosis, UniProt P9WIQ1); experiment: Microtitre plate based screen of Glf (enzymatic inhibition); type: biochemical
[2] = Maximum Tolerated Dose (MTD), single oral dose in mice; settings: escalating dose 100, 300 and 500 mg/kg by oral gavage
Protocol: An assay for Maximum Tolerated Dose (MTD) was also utilized. […] Three different concentrations are tested, generally at 100, 300 and 500 mg/kg. The latter dose is about twice to five times the dose used for efficacy testing of the compound in mice. After 7 days of observation the mice are sacrificed and the organs are studied for any adverse effects. In case of abnormalities the organs are fixed in formalin and given for extensive pathology analysis.
Maximum tolerated dosing was performed on these selected compounds. An escalating dose of drug (100, 300 and 500 mg/kg) was given to mice by oral gavage.

M. tuberculosis = type: in vivo, mice; settings: for viable M. tuberculosis, Spleen ± SEM: untreated controls 6.7 ± 0.16; for viable M. tuberculosis, Lungs ± SEM: untreated controls 8.0 ± 0.17
M. tuberculosis H37Ra = experiment: MIC against M. tuberculosis H37Ra, micro broth dilution in microtiter plates; settings: M. tuberculosis H37Ra; for TB MIC: Table 1; for TB MIC / MIC: 7 days at 37° C., MIC90; for MIC: Mycobacterium tuberculosis, H37RA, 168 h, read-out: TB MIC, Table 1
[3] = Table 1, Vero cells, alamar blue
[4] = Table 1, Vero cells, alamar blue, unit inferred

Chain of UDP-galactose mutase (Glf) (P9WIQ1 whole entry): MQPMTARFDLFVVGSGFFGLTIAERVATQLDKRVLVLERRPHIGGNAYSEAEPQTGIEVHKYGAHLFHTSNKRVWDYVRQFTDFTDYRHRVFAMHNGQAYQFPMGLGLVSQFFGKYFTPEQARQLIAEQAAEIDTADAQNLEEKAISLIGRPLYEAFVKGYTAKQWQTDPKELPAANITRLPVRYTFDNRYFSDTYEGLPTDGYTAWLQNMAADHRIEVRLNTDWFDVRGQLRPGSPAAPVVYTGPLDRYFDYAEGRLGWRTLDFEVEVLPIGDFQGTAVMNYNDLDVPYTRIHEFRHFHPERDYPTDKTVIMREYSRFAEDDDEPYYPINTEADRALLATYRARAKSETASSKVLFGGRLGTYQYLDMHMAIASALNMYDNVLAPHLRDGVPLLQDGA

O=C(Nc1cccc(Cl)c1)c1ccc([N+](=O)[O-])o1 [Compound 10, 5-Nitro-furan-2-carboxylic acid(3-chloro-phenyl)-amide]
ToxIC50 (Vero cells; [3]): 6.86
Glf inhibition [1]: best inhibitors of Glf
Maximum tolerated dosing, effect observed [2]: no effect at the maximum dose
viable M. tuberculosis, Spleen ± SEM (M. tuberculosis; 300 mg/kg): 7.3 ± 0.12
viable M. tuberculosis, Lungs ± SEM (M. tuberculosis; 300 mg/kg): 8.3 ± 0.21

O=C(Nc1cccc(F)c1)c1ccc([N+](=O)[O-])o1 [Compound 12, 5-Nitro-furan-2-carboxylic acid(3-fluoro-phenyl)-amide]
ToxIC50 (Vero cells; [3]): 9.29
Maximum tolerated dosing, effect observed [2]: no effect at the maximum dose
viable M. tuberculosis, Spleen ± SEM (M. tuberculosis; 300 mg/kg): 7.0 ± 0.11
viable M. tuberculosis, Lungs ± SEM (M. tuberculosis; 300 mg/kg): 8.4 ± 0.24
TB MIC (M. tuberculosis H37Ra): 0.8 µg/mL

COc1cccc(NC(=O)c2ccc([N+](=O)[O-])o2)c1 [Compound 13, 5-Nitro-furan-2-carboxylic acid(3-methoxy-phenyl)-amide]
ToxIC50 (Vero cells; [3]): 18.63
Glf inhibition [1]: best inhibitors of Glf
Maximum tolerated dosing, effect observed [2]: some pathology at 500 mg/kg
viable M. tuberculosis, Spleen ± SEM (M. tuberculosis; 150 mg/kg): 7.2 ± 0.07
viable M. tuberculosis, Lungs ± SEM (M. tuberculosis; 150 mg/kg): 8.0 ± 0.3
TB MIC (M. tuberculosis H37Ra): 0.8 µg/mL

COc1ccc(CNC(=O)c2ccc([N+](=O)[O-])o2)cc1OC [Compound 23, 5-Nitro-furan-2-carboxylic acid 3,4-dimethoxy-benzylamide]
IC50 (Vero cells; Vero): 18.2 µg/mL (≈ 59.3 µM)
selectivity index (SI) (Vero cells): 90.9
Maximum tolerated dosing, effect observed [2]: no effect at the maximum dose
viable M. tuberculosis, Spleen ± SEM (M. tuberculosis; 300 mg/kg): 6.0 ± 0.19
viable M. tuberculosis, Lungs ± SEM (M. tuberculosis; 300 mg/kg): 6.5 ± 0.25
oral activity against M. tuberculosis in the mouse infection model (M. tuberculosis; oral): significant oral activity
anti-tuberculosis MIC activity (M. tuberculosis H37Ra): as active as ethambutol and streptomycin

CC(NC(=O)c1ccc([N+](=O)[O-])o1)c1ccccc1 (stereo not shown) [Compound 30, 5-Nitro-furan-2-carboxylic acid(1-phenyl-ethyl)-amide]
ToxIC50 (Vero cells; [3]): 23.59
TB MIC (M. tuberculosis H37Ra): 3.1 µg/mL

COc1ccc(CCNC(=O)c2ccc([N+](=O)[O-])o2)cc1OC [Compound 31, 5-Nitro-furan-2-carboxylic acid [2-(3,4-dimethoxy-phenyl)-ethyl]-amide]
IC50 (Vero cells; Vero): 27.4 µg/mL (≈ 85.7 µM)
MIC (M. tuberculosis H37Ra): 0.4 µg/mL (≈ 1.25 µM)

COc1cccc(NC(=O)c2ccc(Br)o2)c1 [Compound 33, 5-Bromo-furan-2-carboxylic acid(3-methoxy-phenyl)-amide]
IC50 (Vero cells; [4]): 61.2 µg/mL (≈ 207 µM)
MIC (M. tuberculosis H37Ra): 100 µg/mL (≈ 338 µM)

COc1cccc(NC(=O)c2ccc(Sc3ccccc3)o2)c1 [Compound 36, 5-Phenylsulfanyl-furan-2-carboxylic acid(3-methoxy-phenyl)-amide]
IC50 (Vero cells; [4]): 25.7 µg/mL (≈ 79 µM)
MIC (M. tuberculosis H37Ra): 25 µg/mL (≈ 76.8 µM)

O=C(NCc1ccc(N2CCN(Cc3ccccc3)CC2)cc1)c1ccc([N+](=O)[O-])o1 [Compound 66, 5-Nitro-furan-2-carboxylic acid 4-(4-benzyl-piperazin-1-yl)-benzylamide]
selectivity index (SI) (Vero cells): 1597
anti-tuberculosis MIC activity (M. tuberculosis H37Ra): extremely potent; also recorded: more active than isoniazid

NNC(=O)c1ccncc1 [Isoniazid, reference compound]
viable M. tuberculosis, Spleen ± SEM (M. tuberculosis; 25 mg/kg): 3.2 ± 0.21
viable M. tuberculosis, Lungs ± SEM (M. tuberculosis; 25 mg/kg): 5.5 ± 0.21

Cc1ncc([N+](=O)[O-])n1CCO [Metronidazole, reference compound]
viable M. tuberculosis, Spleen ± SEM (M. tuberculosis; 150 mg/kg): 6.9 ± 0.04
viable M. tuberculosis, Lungs ± SEM (M. tuberculosis; 150 mg/kg): 8.5 ± 0.18
